Results reported in US5635537A, “8-substituted-2-aminotetralins” (Astra Aktiebolag, priority 1989, dated 1997).
Structures can show the parent of a compound that is named as a salt.

Biological target: T1, 5HT1A (Rattus norvegicus, UniProt P19327)
T1 construct: Cerebral cortex + hippocampus from each rat was dissected and homogenized; from tissue; host or cells: rat cerebral cortex + hippocampus homogenate
T1 sequence (P19327 1-422): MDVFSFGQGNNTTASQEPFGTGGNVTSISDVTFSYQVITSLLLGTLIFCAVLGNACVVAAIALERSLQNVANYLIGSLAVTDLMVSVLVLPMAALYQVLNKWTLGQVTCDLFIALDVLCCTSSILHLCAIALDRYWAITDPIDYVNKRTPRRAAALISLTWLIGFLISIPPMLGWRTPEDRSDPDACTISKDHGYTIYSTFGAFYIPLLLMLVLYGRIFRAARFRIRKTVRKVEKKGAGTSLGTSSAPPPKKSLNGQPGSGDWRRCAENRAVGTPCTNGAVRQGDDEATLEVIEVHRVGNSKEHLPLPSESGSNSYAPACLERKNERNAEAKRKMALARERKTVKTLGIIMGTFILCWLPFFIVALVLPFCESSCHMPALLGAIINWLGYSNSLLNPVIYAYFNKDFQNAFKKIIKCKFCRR
Experiment: 5HT1A binding assay (receptor binding, 3H-8-OH-DPAT, rat cerebral cortex + hippocampus)
Details: 3H-8-OH-DPAT (0.25 to 8 nM), rat cerebral cortex + hippocampus homogenate, 37° C., 10 min, pH 7.5
Description: Another observation is that some of these compounds have a particularly good oral bioavailability. In order to evaluate the affinity for this subgroup of/the 5-HT-receptors, the effects on various receptors in rat brain were measured in vitro using receptor assays (Ki nM).
5HT1A binding assay. Cerebral cortex + hippocampus from each rat was dissected and homogenized in 15 ml ice-cold 50 mM Tris-HCl buffer 4.0 mM CaCl2 and 5.7 mM ascorbic acid, pH 7.5 with an Ultra-Turrax (Janke & Kunkel, Staufen, FRG) for ten s. After centrifugation for 12.5 min at 17,000 rpm (39,800×g in a Beckman centrifuge with a chilled JA-17 rotor (Beckman, Palo Alto, Calif., USA), the pellets were resuspended in the same buffer and homogenization and centrifugation repeated. To each pellet 5 ml ice-cold 0.32M sucrose were added and homogenized for 5 sec. These samples were kept frozen at -70° C. When used they were diluted with the buffer to 8 mg tissue/ml and homogenized for 10 sec.
The tissue homogenates were incubated for ten min at 37° C. and then supplied with 10 μM pargyline followed by reincubation for 10 min.
The binding assay followed that described by Peroutka, J. Neurochem. 47, 529-540, (1986). The incubation mixture (2 ml) contained ^3 H-8-OH-DPAT (0.25 to 8 nM), 5 mg/ml tissue homogenate in 50 mM Tris-HCl buffer containing 4.0 mM CaCl2 and 5.7 mM ascorbic acid, pH 7.5. Six different concentrations of ^3 H-8-OH-DPAT were analyzed. Binding experiments were started by the addition of tissue homogenate and followed by incubation at 37° C. for ten min. The incubation mixtures were filtered through Whatman GF/B glass filters with a Brandel Cell Harvester (Gaithersburg, Md., USA). The filters were washed twice with 5 ml ice-cold 50 mM Tria-HCl buffer, pH 7.5, and counted with 5 ml Ready-solv HP (Beckman) in a Beckman LS 3801 scintillation counter. Non-specific binding was measured by the addition of 10 μM 5-HT to the reaction mixture. The binding data was processed by non-linear least squares computer/analysis (Munson and Rodbard, Anal. Biochem. 107, 220-239, (1980).

CCCN(CCC)C1CCc2cccc(C(C)=O)c2C1 (racemic) [Example 2, (±)-8-Acetyl-2-(dipropylamino)tetralin hydrochloride]
Ki: 0.9 nM

CCCN(CCC)C1CCc2cccc(-c3ccco3)c2C1 (racemic) [Example 11, (±)-8-(2-Furanyl)-2-(dipropylamino)tetralin oxalate]
Ki: 1.5 nM

CCCN(CCC)C1CCc2cccc(C(C)=O)c2C1 (single isomer, unassigned; (+)) [Example 6, (+)-8-Acetyl-2-(dipropylamino)tetralin hydrochloride]
Ki: 1.7 nM
